Laboratory results: patent publication US10626107B2, “Crystal form, salt type of substituted 2-hydro-pyrazole derivative and preparation method therefor” (CHIA TAI TIANQING PHARMACEUTICAL GROUP CO., LTD., priority 2016, dated 2020)
Read-outs that look alike come from different tables or passages of the source.

Key:
[1] = tested on: human lung cancer LU-01-0393 subcutaneous xenograft tumor; test: In vivo drug efficacy study (II): human lung cancer LU-01-0393 subcutaneous xenograft tumor model; design: species or system BALB/c nude mice; conditions: 120.0 mg/kg PO QD × 3W
Excerpt: Cell line-derived xenograft (CDX) BALB/c nude mice that were female, 6- to 8-week old, weighed 17 to 20 g, and subcutaneously implanted with human tumor cell line derived from LU-01-0393 lung cancer patient were used. A total of 72 mice were needed and were purchased from Shanghai Xipuer-Bikai Experimental Animal Co., Ltd. Human lung cancer LU-01-0393 tumor (i.e., non-small cell lung cancer) was originally derived from a clinical sample of a surgical resection. It was defined as passage PO after being inoculated to nude mice, and the tumor of passage PO was re-inoculated to nude mice and was then defined as passage P1, and so forth. Passage was performed in nude mice. LU-01-0393-FP5 was obtained from the transplantation after the recovery of P4. This study would use the tumor tissue of passage FP6.
BALB/c nude mice that were female, 6- to 8-week old, and weighed approximately 17 to 20 g were used. The mice were maintained in separate ventilated cages in a special pathogen-free environment. All the cages, bedding and water were disinfected prior to use. All the animals were free to access a standard certified commercial laboratory diet. A total of 72 mice purchased from Shanghai Xipuer-Bikai Experimental Animal Co., Ltd. were used for the study. The LU-01-0393 FP6 tumor tissue was cut to 20 to 30 mm^3 and inoculated to the right back of each mouse to wait for the tumor growth. When the average tumor volume reached about 171 mm^3, the mice were randomized into groups and administered. The test compounds were orally administered daily, and the administration dosages were as shown in the above table. The tumor diameters were measured twice a week using a two-dimensional caliper. The tumor volumes were calculated by the following formula: V=0.5 a×b^2, wherein a and b were the long diameter and the short diameter of a tumor, respectively. The anti-tumor efficacy was determined by dividing the average increase of the tumor volumes of the animals treated with a compound by the average increase of the tumor volumes of the animals without being treated with the compound.

[2] = tested on: MCF-7 breast cancer cells; test: Inhibition assay of the A crystal form of WX_1 on MCF-7 breast cancer cell proliferation (CellTiter-Glo); format: cell-based; conditions: Homo sapiens, MCF7, 144 h; MCF-7 cells, 6 days
Method: (§1) RPMI 1640 medium, fetal bovine serum and penicillin/streptomycin as antibiotics were purchased from Promega (Madison, Wis.). The MCF-7 cell line was purchased from the European Collection of Authenticated Cell Cultures (ECACC). Envision MultiLabel Plate Reader (PerkinElmer).
(§2) MCF-7 cells were seeded in a black 384-well plate with 45 μL of cell suspension (containing 200 MCF-7 cells) per well. The cell plate was placed in a carbon dioxide incubator for overnight culture.
(§3) The test compounds were diluted 3 times to the 10th concentration with Bravo, i.e., diluted from 10 μM to 0.508 nM, and a duplicate-well experiment was set. The medium was added to the middle plate in an amount of 49 μL per well. The gradient-diluted compounds were transferred in an amount of 1 μL per well to the middle plate according to the corresponding positions, and the mixture was mixed evenly and transferred to the cell plate in an amount of 5 μL per well. The cell plate was incubated in a carbon dioxide incubator for 6 days.
Promega CellTiter-Glo reagent was added to the cell plate in an amount of […] per well, and incubated for 10 minutes at room temperature to stabilize the luminescence signal. Reading was performed using a PerkinElmer Envision Multilabel Plate Reader.

[3] = tested on: human breast cancer MCF-7 subcutaneous xenograft tumor; format: in vivo
Excerpt: Cell line-derived xenograft (CDX) BALB/c nude mice that were female, 6- to 8-week old, weighed 20 g, and subcutaneously implanted with human tumor cell line derived from MCF-7 breast cancer patients were used. A total of 150 mice were needed, which were purchased from Beijing Vital River Laboratory Animal Technology Co., Ltd.
BALB/c nude mice that were female, 6- to 8-week old, and weighed approximately 20 g were used. The mice were maintained in separate ventilated cages (10 mice per cage) in a special pathogen-free environment. All the cages, bedding and water were disinfected prior to use. All the animals were free to access a standard certified commercial laboratory diet. A total of 150 mice were purchased from Beijing Vital River Laboratory Animal Technology Co., Ltd. for research. Each mouse was implanted subcutaneously with an estrogen tablets (0.18 mg/tablet, 60-day sustained release) in the left back. After 3 days, each mouse was implanted with tumor cells (10×10^6 in 0.2 mL of phosphate buffer) subcutaneously in the right back for tumor growth. Administration was started when the average tumor volume reached about 150 to 200 mm^3. The test compounds were orally administered daily, and the administration dosages were as shown in the above table. The tumor volumes were measured twice a week using a two-dimensional caliper. The volumes were expressed in cubic millimeters and calculated by the following formula: V=0.5 a×b^2, wherein a and b were the long diameter and short diameter of a tumor, respectively. The anti-tumor efficacy was determined by dividing the average increase of the tumor volumes of the animals treated with a compound by the average increase of the tumor volumes of the animals without being treated with the compound.

MCF-7 cells = test: Inhibition assay of the compound of formula (I) on the proliferation of MCF-7 cells (CellTiter-Glo); format: cell-based; conditions: Homo sapiens, MCF7, 144 h, 6 days
Method: as §1, with “and the MDA-MB-436 cell line were” for “was”, “Multilabel” for “MultiLabel”
as §2, §3
(§4) Promega CellTiter-Glo reagent was added to the cell plate in an amount of 25 μL per well, and incubated for 10 minutes at room temperature to stabilize the luminescence signal. Reading was performed using a PerkinElmer Envision Multilabel Plate Reader.

MDA-MB-436 cells = test: Inhibition assay of the compound of formula (I) on the proliferation of MDA-MB-436 cells (CellTiter-Glo); format: cell-based; conditions: Homo sapiens, 144 h, 6 days
Method: as §1, with “and the MDA-MB-436 cell line were” for “was”, “Multilabel” for “MultiLabel”
MDA-MB-436 cells were seeded in a black 384-well plate with 45 μL of cell suspension (containing 585 MDA-MB-436 cells) per well. The cell plate was placed in a carbon dioxide incubator for overnight culture.
as §3, §4

[4] = Solubility tests in different vehicles (HPLC); format: physicochemical; conditions: 26 °C, thermodynamic from solid, room temperature 25 to 27° C.
Method: Samples (about 2 mg) (if the sample was a salt, the required amount of the salt was calculated according to the salt factor in accordance with the criterion that the compound of formula (I) was 2 mg) were weighed respectively and added to a 1.5 mL glass vial. Different vehicles (1 mL) were then added respectively. The above-mentioned suspension was placed on a magnetic stirrer for stirring (room temperature 25 to 27° C.). After stirring for 24 hours, samples were taken. The samples were first centrifuged, and the supernatants were taken. After appropriate dilution according to the situation of the dissolution, the concentrations were determined by HPLC. The results were as follows:
Notes: • FaSSIF: to simulate the intestinal fluid in the small intestine of human in a hunger state before meal; • FeSSIF: to simulate the intestinal fluid in the small intestine of human in a full state after meal; • SGF: to simulate the gastric juice in the empty stomach of human in a hunger state

| SMILES | Tumor volume Day 0 [1] [mm^3] | Tumor volume Day 7 [1] [mm^3] | Tumor volume Day 14 [1] [mm^3] | Tumor volume Day 21 [1] [mm^3] | IC50 [2] [nM] | Tumor volume Day 0 ([3]; 25.0 mg/kg PO QD × 3W) [mm^3] | Tumor volume Day 7 ([3]; 25.0 mg/kg PO QD × 3W) [mm^3] | Tumor volume Day 14 ([3]; 25.0 mg/kg PO QD × 3W) [mm^3] | Tumor volume Day 20 ([3]; 25.0 mg/kg PO QD × 3W) [mm^3] | Tumor volume Day 0 ([3]; 50.0 mg/kg PO QD × 3W) [mm^3] | Tumor volume Day 7 ([3]; 50.0 mg/kg PO QD × 3W) [mm^3] | Tumor volume Day 14 ([3]; 50.0 mg/kg PO QD × 3W) [mm^3] | Tumor volume Day 20 ([3]; 50.0 mg/kg PO QD × 3W) [mm^3] | tolerability ([3]; mouse, in vivo) | IC50 (MCF-7 cells) [nM] | IC50 (MDA-MB-436 cells) [nM] | solubility at 24 h ([4]; simulated gastric fluid, SGF, read-out: Solubility SGF) [µg/mL] | solubility at 24 h ([4]; FaSSIF, read-out: Solubility FaSSIF) [µg/mL] | solubility at 24 h ([4]; FeSSIF, read-out: Solubility FeSSIF) [µg/mL] | solubility at 24 h ([4]; water, water, H2O, read-out: Solubility H2O) [µg/mL] |
| --- | --- | --- | --- | --- | --- | --- | --- | --- | --- | --- | --- | --- | --- | --- | --- | --- | --- | --- | --- | --- |
| CCN1CCN(Cc2ccc(Nc3ncc(F)c(-c4cc(F)c5nc(C)n(C(C)C)c5c4)n3)nc2)CC1 [LY2835219, Abemaciclib] | 172 ± 23 | 228 ± 26 | 255 ± 30 | 272 ± 36 | 185 | 153 | 155 |  |  |  |  |  |  |  |  |  |  |  |  |  |
| CC(=O)c1c(C)c2cnc(Nc3ccc(N4CCNCC4)cn3)nc2n(C2CCCC2)c1=O [Palbociclib] | 170 ± 24 | 261 ± 38 | 266 ± 41 | 251 ± 34 | 88.2 | 153 | 203 | 252 | 222 | 153 | 180 | 197 | 137 | intolerable |  |  |  |  |  |  |
| CC(C)c1c2cc(-c3nc(Nc4ccc(N5CCNCC5)cn4)ncc3F)ccc2nn1C [compound of formula (I)] |  |  |  |  |  |  |  |  |  |  |  |  |  |  | 32.1 | 328 | > 2000 | 13 | 1600 | 10 |
| CCN1CCN(Cc2ccc(Nc3ncc(F)c(-c4ccc5nn(C)c(C(C)C)c5c4)n3)nc2)CC1 [compound of formula (a), reference compound] |  |  |  |  |  |  |  |  |  |  |  |  |  |  | 240 | 2100 |  |  |  |  |
